From patent US20120302748A1, “TREATMENT OR PROPHYLAXIS OF PROLIFERATIVE CONDITIONS” (THE UNIVERSITY COURT OF THE UNIVERSITY OF DUNDEE, priority 2009, published 2012)
Like-named read-outs stand apart in the source and are kept apart here. Blank lines part the entries; values can stand above or below the compound they belong to.

What was measured:
[1] = tested on: CHO cells
[2] = biological target: T1, CYP1B1 (Homo sapiens, UniProt Q16678); experiment: CYP1B1 substrate prediction model (Gaussian Kernel weighted k-NN); settings: predicted versus actual
T1 sequence (Q16678 1-543): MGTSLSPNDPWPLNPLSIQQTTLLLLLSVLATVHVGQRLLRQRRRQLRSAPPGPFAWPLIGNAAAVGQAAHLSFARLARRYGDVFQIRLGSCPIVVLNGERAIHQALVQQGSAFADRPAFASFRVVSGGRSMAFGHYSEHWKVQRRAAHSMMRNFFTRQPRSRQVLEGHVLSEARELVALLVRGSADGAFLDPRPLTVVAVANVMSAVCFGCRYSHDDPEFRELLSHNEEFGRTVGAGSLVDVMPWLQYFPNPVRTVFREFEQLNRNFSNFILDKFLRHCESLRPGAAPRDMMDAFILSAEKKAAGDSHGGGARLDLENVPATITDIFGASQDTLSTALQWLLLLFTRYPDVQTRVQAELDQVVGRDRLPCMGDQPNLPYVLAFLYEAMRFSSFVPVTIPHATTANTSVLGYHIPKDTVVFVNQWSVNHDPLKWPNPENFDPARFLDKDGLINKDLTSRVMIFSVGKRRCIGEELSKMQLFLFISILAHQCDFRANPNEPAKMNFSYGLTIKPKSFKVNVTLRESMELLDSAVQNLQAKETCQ

[3] = biological target: T2, CYP1A1 (Homo sapiens, UniProt P04798); settings: inhibitor at 10 nmol dm^−3
T2 sequence (P04798 1-512): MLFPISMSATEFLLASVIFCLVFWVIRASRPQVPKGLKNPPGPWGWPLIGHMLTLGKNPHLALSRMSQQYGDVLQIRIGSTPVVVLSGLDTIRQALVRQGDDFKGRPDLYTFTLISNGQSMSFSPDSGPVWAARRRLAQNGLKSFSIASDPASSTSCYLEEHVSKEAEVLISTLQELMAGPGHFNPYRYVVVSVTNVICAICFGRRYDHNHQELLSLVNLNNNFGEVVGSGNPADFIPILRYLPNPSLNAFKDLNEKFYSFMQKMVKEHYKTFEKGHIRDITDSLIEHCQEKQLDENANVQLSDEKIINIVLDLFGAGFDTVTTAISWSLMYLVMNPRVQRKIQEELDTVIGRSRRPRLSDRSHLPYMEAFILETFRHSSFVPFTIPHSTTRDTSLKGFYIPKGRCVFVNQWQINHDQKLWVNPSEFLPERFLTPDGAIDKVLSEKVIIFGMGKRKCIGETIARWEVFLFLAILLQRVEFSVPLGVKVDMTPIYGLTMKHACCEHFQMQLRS

[4] = biological target: T2, CYP1A1; settings: inhibitor at 10 nmol dm^−3; remark: listed apart in the source
[5] = tested on: UTSCC-14 primary human tumour xenograft; experiment: Anti-tumour activity in primary human tumour xenograft model; format: in vivo, nude mice; settings: for Tumour growth delay at 28 days: 2 cycles daily for 5 days/2 days off
Experimental: Primary UTSCC-14 cell lines 3×10^6 were implanted subcutaneously in the flank of nude mice. Mice were randomized to 10 animals per group when the tumour volume was 100 to 150 mm^3. SU046-04 was given intraperitoneally at 12, 25 and 50 mg/Kg in PBS versus versus vehicle alone for 2 cycles: daily for 5 days/2 days off. Tumour volume was measured every 4 days using calipers. […] Tumour growth delay at 28 days was 31% at 12 mg/Kg, 56% at 25 mg/Kg, and 90% at 50 mg/Kg with 4/10 complete responses.

[6] = tested on: CHO/CYP1B1 cells
[7] = tested on: CHO/CYP1B1 cells; experiment: cells; settings: Cricetulus griseus
[8] = in vitro; settings: Chinese hamster
[9] = tested on: CYP1A1; experiment: in vitro; settings: Chinese hamster
[10] = tested on: UT-SCC-14 tumour cells; experiment: Cytotoxicity in primary HNSCC tumour cell line UT-SCC-14 (MTS assay); settings: Homo sapiens, 72 h, read-out: cytotoxicity IC50 UT-SCC-14
[11] = biological target: T1, CYP1B1; experiment: CYP1B1 substrate inhibition, P450-Glo Luciferin-CEE luminescent assay; settings: human
[12] = biological target: T3, CYP1A2 (Homo sapiens, UniProt P05177); experiment: Supersomal CYP1A2 fragmentation of coumarin model prodrugs (kinetic fluorimetry); format: biochemical; settings: 10 μmol dm^−3 prodrug, 10 pmol enzyme, pH 7.4, 37° C.; mean ± standard deviation of three
T3 construct: purchased BD Gentest, Oxford, UK
T3 sequence (P05177 2-516 limits assumed): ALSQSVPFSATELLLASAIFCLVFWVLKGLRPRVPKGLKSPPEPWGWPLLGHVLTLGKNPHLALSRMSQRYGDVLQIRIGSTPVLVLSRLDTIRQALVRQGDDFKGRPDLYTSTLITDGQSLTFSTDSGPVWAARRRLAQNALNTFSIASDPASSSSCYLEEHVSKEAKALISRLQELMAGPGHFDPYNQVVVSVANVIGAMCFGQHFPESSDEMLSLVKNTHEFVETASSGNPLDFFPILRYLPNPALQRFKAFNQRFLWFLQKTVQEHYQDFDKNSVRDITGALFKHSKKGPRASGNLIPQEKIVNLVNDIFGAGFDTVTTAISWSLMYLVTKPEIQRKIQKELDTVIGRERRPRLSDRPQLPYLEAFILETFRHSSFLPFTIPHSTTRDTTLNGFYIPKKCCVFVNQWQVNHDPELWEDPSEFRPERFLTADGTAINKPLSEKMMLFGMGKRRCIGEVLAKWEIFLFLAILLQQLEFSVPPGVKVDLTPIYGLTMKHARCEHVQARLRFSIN

[13] = tested on: human liver microsomes (HLM); experiment: Pooled human liver microsome (HLM) fragmentation of coumarin model prodrugs; format: in vitro ADME; settings: 60 μl HLM in 1.5 ml, pH 7.4, 37° C.; mean ± standard deviation of three
[14] = biological target: T2, CYP1A1; experiment: Supersomal CYP1A1 fragmentation of coumarin model prodrugs (kinetic fluorimetry); format: biochemical; design: purchased BD Gentest, Oxford, UK; settings: 10 μmol dm^−3 prodrug, 10 pmol enzyme, pH 7.4, 37° C.; mean ± standard deviation of three
[15] = biological target: T1, CYP1B1; experiment: Supersomal CYP1B1 fragmentation of coumarin model prodrugs (kinetic fluorimetry); format: biochemical; design: purchased BD Gentest, Oxford, UK; settings: 10 μmol dm^−3 prodrug, 10 pmol enzyme, pH 7.4, 37° C.; mean ± standard deviation of three
[16] = biological target: T4, human supersomal CYP1B1 plus reductase (Homo sapiens, UniProt Q16678); experiment: CYP1B1 substrate inhibition, P450-Glo Luciferin-CEE luminescent assay; settings: final concentration of 0.5 mmol dm^−3; triplicate, mean ± standard deviation
T4 sequence (Q16678 1-543): T1 sequence (Q16678 1-543)

[17] = tested on: UT-SCC-8; experiment: cells; settings: Homo sapiens, 72 h, read-out: cytotoxicity IC50 UT-SCC-8
[18] = tested on: UT-SCC-9; experiment: cells; settings: Homo sapiens, 72 h, read-out: cytotoxicity IC50 UT-SCC-9
[19] = tested on: UT-SCC-10; experiment: cells; settings: Homo sapiens, 72 h, read-out: cytotoxicity IC50 UT-SCC-10
[20] = biological target: T1, CYP1B1; experiment: in vitro
[21] = 72 h, read-out: Cytotoxicity (IC50) CHO/CYP1B1 72 h
[22] = 96 h, read-out: Cytotoxicity (IC50) CHO/CYP1B1 96 h
[23] = cytotoxicity IC50 in wild-type CHO cells

Compound: O=P1(N(CCCl)CCCl)NCCCO1 (centres unmarked) [cyclophosphamide]
toxicity in the CHO cytotoxicity assay [1]: non-toxic

Compound: tetramethoxystilbene
% CYP1B1 substrate inhibition accuracy [2]: 98%
Specific activity CHO/CYP1A1 ethoxyresorufin [3]: 26 ± 4 pmol resorufin or luciferin min^−1 mg protein^−1
Specific activity CHO/CYP1A1 Luciferin-CEE [4]: 20 ± 5 pmol resorufin or luciferin min^−1 mg protein^−1

Compound: COc1cc(OC)c2oc(COP(=O)(NCCBr)NCCBr)cc2c1 [SU046-04]
% CYP1B1 substrate inhibition accuracy [2]: 96%
Tumour growth delay at 28 days ([5]; 12 mg/Kg intraperitoneally): 31%
Tumour growth delay at 28 days ([5]; 25 mg/Kg intraperitoneally): 56%
complete responses ([5]; 50 mg/Kg intraperitoneally): 4/10
Tumour growth delay at 28 days ([5]; 50 mg/Kg intraperitoneally): 90%
adverse effects / body weight loss ([5]; after highest exposure 250 mg/Kg): No observed adverse effects or significant body weight loss
inhibition of tumour growth versus vehicle ([5]; all three treatment arms 12, 25 and 50 mg/Kg): significant inhibition of tumour growth
IC50 ratio 72 h (CHO / CHO/CYP1B1) [6]: 5075
IC50 [7, 21]: 4 ± 2 nM
IC50 [7, 22]: 3 ± 1 nM
IC50 ([8]; Cytotoxicity (IC50) CHO 72 h): 20300 ± 1200 nM
IC50 ([8]; Cytotoxicity (IC50) CHO 96 h): 16200 ± 200 nM
IC50 [8, 23]: ≥ 10000 nM
IC50 [9]: 20300 ± 2100 nM
IC50 [10]: 20 ± 10 nM
inhibition at 0.5 mmol dm^−3 [11]: 96.45 ± 0.22%

melting point: 216 to 218 °C
Compound: Cc1cc(=O)oc2cc(OCc3c4ccccc4cc4ccccc34)ccc12 [SU06-02, 7-(anthracen-9-ylmethoxy)-4-methyl-2H-chromen-2-one]

Compound: Cc1cc(=O)oc2cc(NC(=O)OCc3cc4cc(Br)ccc4o3)ccc12 [VG036-05, (5-bromobenzofuran-2-yl)methyl 4-methyl-2-oxo-2H-chromen-7-ylcarbamate]
Specific fragmentation activity CYP1A2 [12]: no release
Specific fragmentation activity HLM [13]: no release
Specific fragmentation activity CYP1A1 [14]: no release
Specific fragmentation activity CYP1B1 [15]: no release

Compound: C[C@]12CC[C@@H]3c4ccc(O)cc4CC[C@H]3[C@@H]1CC[C@@H]2O [β-estradiol, reference compound]
% CYP1B1 substrate inhibition accuracy [2]: 95%
% CYP1B1 substrate inhibition actual [16]: 72.34 ± 0.45%

Compound: CC[C@@]1(O)C(=O)OCc2c1cc1n(c2=O)Cc2cc3cc(OCc4cc5cc(OC)cc(OC)c5o4)ccc3nc2-1 [SU037-04]
IC50 [17]: 560 ± 40 nM
IC50 [18]: 220 ± 80 nM
IC50 [19]: 210 ± 40 nM
IC50 [10]: 120 ± 70 nM

Compound: COc1cc(OC)c2oc(COP(=O)(NCCCl)NCCCl)cc2c1 [SU025-04]
% CYP1B1 substrate inhibition accuracy [2]: 96%
IC50 ratio 72 h (CHO / CHO/CYP1B1) [6]: 1689
IC50 [7, 21]: 9 ± 5 nM
IC50 [7, 22]: 3 ± 2 nM
IC50 ([8]; Cytotoxicity (IC50) CHO 72 h): 15200 ± 200 nM
IC50 ([8]; Cytotoxicity (IC50) CHO 96 h): 10100 ± 300 nM
IC50 [8, 23]: ≥ 10000 nM
IC50 [9]: 25500 ± 1000 nM
IC50 [10]: 50 ± 10 nM
inhibition at 0.5 mmol dm^−3 [11]: 91.22 ± 0.48%

Compound: Cc1cc(=O)oc2cc(OCc3cc4cc(F)cc(F)c4o3)ccc12 [VG016-05, 7-((5,7-difluorobenzofuran-2-yl)methoxy)-4-methyl-2H-chromen-2-one]
Specific fragmentation activity CYP1A2 [12]: no release
Specific fragmentation activity HLM [13]: no release
% CYP1B1 substrate inhibition accuracy [2]: 82%
inhibition at 0.5 mmol dm^−3 [20]: 2.45 ± 0.32%
Specific fragmentation activity CYP1A1 [14]: no release
Specific fragmentation activity CYP1B1 [15]: no release

Compound: COc1cc(OC)c2oc(COc3ccc4c(C)cc(=O)oc4c3)cc2c1 [VG035-05, 7-((5,7-dimethoxybenzofuran-2-yl)methoxy)-4-methyl-2H-chromen-2-one]
Specific fragmentation activity CYP1A2 [12]: no release
Specific fragmentation activity HLM [13]: no release
% CYP1B1 substrate inhibition accuracy [2]: 96%
inhibition at 0.5 mmol dm^−3 [20]: 97.34 ± 0.32%
Specific fragmentation activity CYP1A1 [14]: no release
Specific fragmentation activity CYP1B1 [15]: 13.65±1.00 pmol coumarin min^−1 pmol cytochrome P450^−1
